Among the data in ChEMBL document CHEMBL1909570, “Synthesis and antibacterial activity of N4-mono alkyl derivatives of novel glycopeptide LYV07ww01” (2011) are MIC values, retold here.

≈ marks a conversion by molar mass, not a printed value. A value given as a limit tells only on which side of the number the result lay.

Assay type in all cases: functional
One assay relates to Enterococcus faecium. Description: Antibacterial activity against Enterococcus faecium 32220 by CLSI agar microdilution method.
The subject of the next assay is Streptococcus pneumoniae. Description: Antibacterial activity against Streptococcus pneumoniae 31002 by CLSI agar microdilution method.
For another assay, the system named is Streptococcus. Put plainly: Antibacterial activity against Streptococcus gamma 32206 by CLSI agar microdilution method.
The next assay has as its system Staphylococcus aureus. Description: Antibacterial activity against Staphylococcus aureus 26003 by CLSI agar microdilution method.
The test system of the next assay is Staphylococcus. Description: Antibacterial activity against Staphylococcus albus 26101 by CLSI agar microdilution method.
In assay [1] the test system is Staphylococcus epidermidis. Description: Antibacterial activity against Staphylococcus epidermidis 26069 by CLSI agar microdilution method.

Consider `CN[C@H](CC(C)C)C(=O)N[C@H]1C(=O)N[C@@H](CC(N)=O)C(=O)N[C@H]2C(=O)N[C@H]3C(=O)N[C@H](C(=O)N[C@@H](C(=O)O)c4cc(O)cc(O)c4-c4cc3ccc4O)[C@H](O[C@H]3C[C@](C)(N)[C@H](O)[C@H](C)O3)c3ccc(c(Cl)c3)Oc3cc2cc(c3O[C@@H]2O[C@H](CO)[C@@H](O)[C@H](O)[C@H]2O[C@H]2C[C@](C)(NCc3ccc(-c4ccc(Cl)cc4)cc3)[C@H](O)[C@H](C)O2)Oc2ccc(cc2Cl)[C@H]1O`, for which the MIC in the assay on Enterococcus faecium was found to be 6.25 µg/mL (≈ 3.49 µM); with Streptococcus pneumoniae it was 3.13 µg/mL (≈ 1.75 µM); against Streptococcus it was 3.13 µg/mL (≈ 1.75 µM); in the assay on Staphylococcus aureus, 6.25 µg/mL (≈ 3.49 µM); in the assay with Staphylococcus, 3.13 µg/mL (≈ 1.75 µM); in assay [1], 6.25 µg/mL (≈ 3.49 µM).
Regarding `CCCCCN[C@@]1(C)C[C@H](O[C@H]2[C@H](Oc3c4cc5cc3Oc3ccc(cc3Cl)[C@@H](O[C@H]3C[C@](C)(N)[C@H](O)[C@H](C)O3)[C@@H]3NC(=O)[C@H](NC(=O)[C@@H]5NC(=O)[C@H](CC(N)=O)NC(=O)[C@H](NC(=O)[C@@H](CC(C)C)NC)[C@H](O)c5ccc(c(Cl)c5)O4)c4ccc(O)c(c4)-c4c(O)cc(O)cc4[C@H](C(=O)O)NC3=O)O[C@H](CO)[C@@H](O)[C@@H]2O)O[C@@H](C)[C@H]1O`, the MIC with Enterococcus faecium is > 25 µg/mL; against Streptococcus pneumoniae, 0.39 µg/mL (≈ 0.235 µM); in the assay on Streptococcus, 0.78 µg/mL (≈ 0.469 µM); with Staphylococcus aureus, 1.56 µg/mL (≈ 0.938 µM); in the assay with Staphylococcus, 3.13 µg/mL (≈ 1.88 µM); in assay [1], > 25 µg/mL.
For the compound `CCCCCCCCCN[C@@]1(C)C[C@H](O[C@H]2[C@H](Oc3c4cc5cc3Oc3ccc(cc3Cl)[C@@H](O[C@H]3C[C@](C)(N)[C@H](O)[C@H](C)O3)[C@@H]3NC(=O)[C@H](NC(=O)[C@@H]5NC(=O)[C@H](CC(N)=O)NC(=O)[C@H](NC(=O)[C@@H](CC(C)C)NC)[C@H](O)c5ccc(c(Cl)c5)O4)c4ccc(O)c(c4)-c4c(O)cc(O)cc4[C@H](C(=O)O)NC3=O)O[C@H](CO)[C@@H](O)[C@@H]2O)O[C@@H](C)[C@H]1O`, the MIC against Enterococcus faecium is > 25 µg/mL; in the assay on Streptococcus pneumoniae it was 1.56 µg/mL (≈ 0.908 µM); in the assay with Streptococcus, 1.56 µg/mL (≈ 0.908 µM); with Staphylococcus aureus, 3.13 µg/mL (≈ 1.82 µM); in the assay on Staphylococcus it was 6.25 µg/mL (≈ 3.64 µM); in assay [1], > 25 µg/mL.
As for `CN[C@H](CC(C)C)C(=O)N[C@H]1C(=O)N[C@@H](CC(N)=O)C(=O)N[C@H]2C(=O)N[C@H]3C(=O)N[C@H](C(=O)N[C@@H](C(=O)O)c4cc(O)cc(O)c4-c4cc3ccc4O)[C@H](O[C@H]3C[C@](C)(N)[C@H](O)[C@H](C)O3)c3ccc(c(Cl)c3)Oc3cc2cc(c3O[C@@H]2O[C@H](CO)[C@@H](O)[C@H](O)[C@H]2O[C@H]2C[C@](C)(NCc3ccc(Cl)cc3)[C@H](O)[C@H](C)O2)Oc2ccc(cc2Cl)[C@H]1O`, the MIC in the assay on Enterococcus faecium came out at 3.13 µg/mL (≈ 1.82 µM); with Streptococcus pneumoniae it was 1.56 µg/mL (≈ 0.909 µM); against Streptococcus, 1.56 µg/mL (≈ 0.909 µM); against Staphylococcus aureus, 3.13 µg/mL (≈ 1.82 µM); with Staphylococcus, 3.13 µg/mL (≈ 1.82 µM); in assay [1], 12.5 µg/mL (≈ 7.28 µM).
On to `CN[C@H](CC(C)C)C(=O)N[C@H]1C(=O)N[C@@H](CC(N)=O)C(=O)N[C@H]2C(=O)N[C@H]3C(=O)N[C@H](C(=O)N[C@@H](C(=O)O)c4cc(O)cc(O)c4-c4cc3ccc4O)[C@H](O[C@H]3C[C@](C)(N)[C@H](O)[C@H](C)O3)c3ccc(c(Cl)c3)Oc3cc2cc(c3O[C@@H]2O[C@H](CO)[C@@H](O)[C@H](O)[C@H]2O[C@H]2C[C@](C)(NC/C=C/c3ccccc3)[C@H](O)[C@H](C)O2)Oc2ccc(cc2Cl)[C@H]1O`, for which the MIC against Enterococcus faecium is 3.13 µg/mL (≈ 1.83 µM); against Streptococcus pneumoniae it was 1.56 µg/mL (≈ 0.913 µM); against Streptococcus, 1.56 µg/mL (≈ 0.913 µM); against Staphylococcus aureus, 3.13 µg/mL (≈ 1.83 µM); in the assay on Staphylococcus it was 3.13 µg/mL (≈ 1.83 µM); in assay [1], > 25 µg/mL.

One may read the MIC as the lowest concentration that inhibits growth of the organism. The low end stands for greater potency, the high end for weaker potency.
